Active and inactive are the calls of the source. No cut-off for these calls is given here.
How the values were obtained:
MDA-MB-231 [1] = test: Antiproliferative activity against human MDA-MB-231 cells overexpressing ERnegative and […] assessed as inhibition of cell growth incubated for 96 hrs by coulter counter analysis; format: functional, cell-based; settings: MDA-MB-231, 96 h
MDA-MB-231 [2] = test: Antiproliferative activity against human MDA-MB-231 cells assessed as inhibition of cell growth; format: functional, cell-based
MCF7 = test: Antiproliferative activity against human MCF7 cells assessed as inhibition of cell growth incubated for 96 hrs by coulter counter analysis; format: functional, cell-based; settings: MCF7, 96 h
HCC1806 [3] = test: Antiproliferative activity against human HCC1806 cells assessed as inhibition of cell growth incubated for 36 hrs by SRB assay; format: functional, cell-based; settings: HCC1806, 36 h
MDA-MB-231 [4] = test: Antiproliferative activity against human MDA-MB-231 cells assessed as inhibition of cell growth incubated for 36 hrs by SRB assay; format: functional, cell-based; settings: MDA-MB-231, 36 h
HCC1806 [5] = test: Induction of cell death in human HCC1806 cells assessed as activation of p38 protein incubated for 36 hrs by Western blot analysis; format: functional, cell-based; settings: dose 10-20 µM
HCC1806 [6] = test: Induction of cell death in human HCC1806 cells assessed as increase in p21 expression incubated for 36 hrs by Western blot analysis; format: functional, cell-based; settings: dose 10-20 µM
HCC1806 [7] = test: Induction of cell cycle arrest in human HCC1806 cells assessed as decrease in G2/M phase cells at 10 uM incubated for 36 hrs by PI staining based flow cytometric analysis; format: functional
HCC1806 [8] = test: Induction of cell cycle arrest in human HCC1806 cells assessed as increase in S phase cells at 10 uM incubated for 36 hrs by PI staining based flow cytometric analysis; format: functional
HCC1806 [9] = test: Antiproliferative activity against human HCC1806 cells assessed as inhibition of cell growth at 20 uM incubated for 36 hrs by SRB assay relative to control; format: functional
MDA-MB-231 [10] = test: Antiproliferative activity against human MDA-MB-231 cells assessed as inhibition of cell growth at 20 uM incubated for 36 hrs by SRB assay relative to control; format: functional

Row | SMILES | IC50 (MDA-MB-231 [1]) | IC50 (MDA-MB-231 [2]) | IC50 (MCF7) | IC50 (HCC1806 [3]) | IC50 (MDA-MB-231 [4]) | Activity (HCC1806 [5]) | Activity (HCC1806 [6]) | Activity (HCC1806 [7]) | Activity (HCC1806 [8]) | inhibition at 20 µM (HCC1806 [9]) | inhibition at 20 µM (MDA-MB-231 [10])
1 | CC(=O)O[C@@H]1C[C@@]23C[C@@]24CC[C@H](O[C@@H]2OC[C@@H](O)[C@H](O)[C@H]2O)C(C)(C)[C@@H]4CC[C@H]3[C@]2(C)C[C@@H]3O[C@]4(C[C@@H](C)[C@@H]3[C@@]12C)O[C@H](O)[C@@]1(C)O[C@@H]41 [ACTEIN] | 74 µM | 60 µM | 14 µM | > 20000 nM | > 20 µM |  |  |  |  |  | 
2 | CC(=O)O[C@@H]1[C@@H](OC(C)=O)[C@H](O[C@H]2CC[C@]34C[C@]35C[C@@H](OC(C)=O)[C@]3(C)[C@H]6[C@H](C)C[C@]7(O[C@@H](OC(=O)CCC(=O)O)[C@@]8(C)O[C@@H]78)O[C@H]6C[C@@]3(C)[C@@H]5CC[C@H]4C2(C)C)OC[C@H]1OC(C)=O |  |  |  | 2780 nM | 9.11 µM | Dose-Dependent Effect | Dose-Dependent Effect | Active | Active | > 50% | > 50%

— ChEMBL document CHEMBL5257109, “Development of actein derivatives as potent anti-triple negative breast cancer agents” (Bioorg Med Chem Lett, 2023)
